Measured values as given in the NIST ThermoML archive (doi:10.1007/s10765-006-0018-5).
± gives the expanded uncertainty stated by the source.

How the values were obtained:
[1] = Liquid
[2] = refractive index (Na D-line) (dimensionless); settings: 298.15 K; 101.33 kPa; Liquid; Standard Abbe refractometry

| Compound | vapor or sublimation pressure ([1]; 389.5 K) | refractive index [2] | vapor or sublimation pressure ([1]; 410 K) |
| --- | --- | --- | --- |
| CCCCO [butan-1-ol] | 97.3 ± 1.6 kPa | 1.3973 ± 0.0008 | – |
| Cc1ccc(C)cc1 [1,4-dimethylbenzene] | – | 1.49325 ± 0.00075 | 97.3 ± 1.6 kPa |
